# Measurements: patent US12569470B2, “Vasodilator and use thereof” (Bioradical Research Institute Corp., priority 2019, dated 2026)
# Assays:
# rat neuroid cells B50 [1] = test: Toxicity evaluation on byproducts after reaction with singlet oxygen; type: cell-based; conditions: byproducts after reaction with singlet oxygen, 50, 100, or 200 μmol/1, FIG. 6
# Method: In a cell-free system, the RB was added to media (5% FCS-containing RPMI-1640 media) containing edaravone, ED2AP, and BisEp-C3 having a predetermined concentration (50, 100, or 200 μmol/1) and then irradiated with LED (G-LED) at 525 nm to generate singlet oxygen, whereby reacting each compound with singlet oxygen. The cell viability was measured in the same manner as in Example 7(1), except that the culture solution after the reaction was used as a medium of the neuroid cell B50. As a negative control (NC), the cell viability was measured in the same manner except that each compound and […] were not added in the cell-free system. Further, as a control (RB), the cell viability was measured in the same manner except that each compound was not added and only […] was added in the cell-free system.
# [2] = Storage stability in pH7.4-PBS or pure water at 37° C., residual rate by HPLC; type: physicochemical; conditions: for Residual rate (%) After 1 week / Residual rate (%) After 2 weeks: 200 μmol/1, 37° C., protected from light; for Residual rate (%) Initial concentration: 200 μmol/1, initial concentration (100%) being a reference
# Method: The storage stability of edaravone, EMPO, ED2AP, and BisEp-C3 of the following formula (A) were examined. Specifically, edaravone, EMPO, ED2AP, and BisEp-C3 were dissolved in pH7.4-PBS or pure water so as to have a final concentration of 200 μmol/1 to prepare dissolved solutions of these compounds. When the compounds were difficult to be dissolved, they were dissolved in an ultrasonic cleaner with warm water at 40° C.
# Under the measurement conditions for High-Performance Liquid Chromatography (HPLC) described below, the initial concentration was quantified, and then each solution was stored in an oven, which was protected from light, at 37° C., and quantified under the same measurement conditions after 1 week and 2 weeks, to determine residual rate (%) with the initial concentration (100%) being a reference.
# Measurement Conditions for HPLC
# High-Performance Liquid Chromatography (Shimadzu Corporation)
# Data-processing software (Model: LCsolution Ver. 1.0, produced by Shimadzu Corporation)
# Pump (Model: LC-20AD; produced by Shimadzu Corporation)
# Column oven (Model: CTO-20A; produced by Shimadzu Corporation)
# Autosampler (Model: SIL-20A; produced by Shimadzu Corporation)
# PDA detector (Format: SPD-M20A)
# Column: Atlantis dC18 5 μm (250×4.6 mm I.D.; produced by Waters)
# Column temperature: 45° C.
# Detection method: UV (254 nm)
# Eluate A: pH3 buffer solution (adjusted to pH3 by adding phosphoric acid to 0.05M KH2PO4 aqueous solution)/methanol=90/10
# [3] = test system: superoxide produced by the neutrophils; test: Superoxide-eliminating ability of PBS solutions before and after storage for 10 days; type: cell-based, human; conditions: PBS solution stored for 10 days versus immediately after preparation, 0-200 μmol/1, FIG. 4
# Method: First, ED2AP, BisEp-C3, edaravone, BisEp-C1, or BisEp-C1 (H2) was added to a neutrophil of 4×10^5 cells per sample so as to achieve a predetermined concentration (0, 12.5, 25, 50, 100, or 200 μmol/1, or 0, 125, 250, 500, 1,250, 2,500 or 5,000 μmol/1) with […] of CLA, and then the cell suspension was seeded in flat-bottomed 96-well plates. The volume of the suspension was 200 μl/well, and phenol red-free Ca+, Mg+ HBSS was used as the solution. In addition, the neutrophil was stimulated by adding PMA so as to achieve a concentration of 100 ng/ml. After the stimulation, a plate reader (Envision 2104 Multilabel Reader produced by Perkin Elmer Co., Ltd.) was used to measure the chemiluminescence value over time for 30 minutes with the PMA stimulation time being a reference. The measurement interval was 30 seconds. […] In addition, as a control, the superoxide production amount was measured in the same manner except that each compound was not added. The relative value of the superoxide production amount when each compound was added was calculated with the superoxide production amount of the control being 100.
# PBS solutions of ED2AP, BisEp-C3, and edaravone were prepared in the same manner as in Example 2 and stored for 10 days. […] Then, the relative value of the superoxide production amount of each sample was calculated with the superoxide production amount of the sample of 0 μmol/1 being 100.
# rat neuroid cells B50 [4] = test: Toxicity evaluation, cell viability by Alamar Blue; type: cell-based; conditions: 12.5, 25, 50, 100, or 200 μmol/1, 24 hours, FIG. 5
# Method: Rat neuroid cells B50 were seeded in 12-well plates and then cultured. Edaravone (RC), ED2AP, or BisEp-C3 was added to each well so as to achieve a predetermined concentration (12.5, 25, 50, 100, or 200 μmol/1), and then incubated for 24 hours at 37° C. and 5% CO2. Cell viability in each well after the culture was measured using Alamar Blue.
compound,measurement,setting,value
"CCN1N=C(C)/C(=C\C=C\c2c(C)nn(CC)c2O)C1=O [BisEp-C3, 2,4-dihydro-4-[3-(1-ethyl-5-hydroxy-3-methyl-1H-pyrazol-4-yl)-2-propen-1-ylidene]-2-ethyl-5-methyl-3H-pyrazol-3-one]",cell viability (cytotoxicity of byproducts),rat neuroid cells B50 [1],not cytotoxic at any concentration
same,Residual rate (%) After 1 week,[2]; Pure water,99.4%
same,Residual rate (%) After 2 weeks,[2]; Pure water,88.5%
same,Residual rate (%) Initial concentration,[2]; Pure water,100%
same,Residual rate (%) After 1 week,[2]; pH 7.4-PBS,98.7%
same,Residual rate (%) After 2 weeks,[2]; pH 7.4-PBS,93.6%
same,Residual rate (%) Initial concentration,[2]; pH 7.4-PBS,100%
same,superoxide-eliminating ability after storage,[3],maintained the superoxide-eliminating ability equivalent to that immediately after preparation
same,cell viability (cytotoxicity),rat neuroid cells B50 [4],not cytotoxic at any concentration
"CC1=NN(c2ccccc2)C(=O)/C1=C/C=C/c1c(C)nn(-c2ccccc2)c1O [ED2AP, 2,4-dihydro-4-[3-(5-hydroxy-3-methyl-1-phenyl-1H-pyrazol-4-yl)-2-propen-1-ylidene]-5-methyl-2-phenyl-3H-pyrazol-3-one]",cell viability (cytotoxicity of byproducts),rat neuroid cells B50 [1],not cytotoxic at any concentration
same,Residual rate (%) After 1 week,[2]; Pure water,96.1%
same,Residual rate (%) After 2 weeks,[2]; Pure water,89.8%
same,Residual rate (%) Initial concentration,[2]; Pure water,100%
same,Residual rate (%) After 1 week,[2]; pH 7.4-PBS,96.2%
same,Residual rate (%) After 2 weeks,[2]; pH 7.4-PBS,91.3%
same,Residual rate (%) Initial concentration,[2]; pH 7.4-PBS,100%
same,superoxide-eliminating ability after storage,[3],maintained the superoxide-eliminating ability equivalent to that immediately after preparation
same,cell viability (cytotoxicity),rat neuroid cells B50 [4],not cytotoxic at any concentration
